Key:
[1] = target: T1, full-length human RORγt (Homo sapiens, UniProt P51449); assay: RORγt (full-length human) Reporter Assay, Conditions A; format: cell-based; settings: for IC50: HEK293T cells, GAL4-DBD-RORγt, luciferase, read-out: RORγt (FL) Reporter Assay A, IC50; for inhibition at 6 µM: read-out: RORγt (FL) Reporter Assay A, % inhibition @ 6 μM, 6 μM compound
T1 construct: expressed in transfected cells; host or cells: HEK293T, transiently transfected with pCMV-BD-ROR
T1 sequence (P51449 1-497 isoform P51449-2): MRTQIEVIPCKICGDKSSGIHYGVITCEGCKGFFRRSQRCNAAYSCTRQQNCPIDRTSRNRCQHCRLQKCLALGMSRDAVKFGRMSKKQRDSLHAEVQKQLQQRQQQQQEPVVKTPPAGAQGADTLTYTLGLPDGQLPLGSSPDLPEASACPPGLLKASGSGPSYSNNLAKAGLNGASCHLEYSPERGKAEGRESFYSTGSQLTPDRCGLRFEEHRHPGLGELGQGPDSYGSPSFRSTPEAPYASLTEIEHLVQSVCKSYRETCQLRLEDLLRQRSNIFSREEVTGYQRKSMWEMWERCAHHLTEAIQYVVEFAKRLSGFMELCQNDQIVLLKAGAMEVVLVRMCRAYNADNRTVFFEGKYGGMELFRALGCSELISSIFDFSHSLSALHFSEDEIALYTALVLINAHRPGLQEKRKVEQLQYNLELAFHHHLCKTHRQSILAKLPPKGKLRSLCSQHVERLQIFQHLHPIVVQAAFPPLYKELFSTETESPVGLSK
Experimental: After overnight (16 to 20 hours) incubation, media were removed and cells were lysed with 20 μL 1× Passive Lysis Buffer (Promega) for 10-15 minutes. Luminescence was measured using a BMG LUMIstar OPTIMA plate reader, after addition of 75 μL/well firefly luciferase buffer, followed by 75 μL/well Renilla luciferase buffer. To calculate the effect of compounds on RORγt activity, firefly values were normalized against values of DMSO only and values of reference compound at saturating concentration, then further normalized against Renilla signals. IC50s were generated by plotting final Renilla normalized data against compound concentration and percent inhibition was calculated against DMSO control.

[2] = target: T2, human RORγt ligand binding domain (RORγt LBD) (Homo sapiens, UniProt P51449); assay: RORγt ThermoFluor assay; settings: estimated from thermal shift concentration response
T2 construct: His-tag (N); TurboTEV protease cleavage site (ENLYFQG) (N); made in house; host or cells: E. coli (pHIS1, a modified pET expression vector)
T2 sequence (P51449 with tags, fused parts or gaps): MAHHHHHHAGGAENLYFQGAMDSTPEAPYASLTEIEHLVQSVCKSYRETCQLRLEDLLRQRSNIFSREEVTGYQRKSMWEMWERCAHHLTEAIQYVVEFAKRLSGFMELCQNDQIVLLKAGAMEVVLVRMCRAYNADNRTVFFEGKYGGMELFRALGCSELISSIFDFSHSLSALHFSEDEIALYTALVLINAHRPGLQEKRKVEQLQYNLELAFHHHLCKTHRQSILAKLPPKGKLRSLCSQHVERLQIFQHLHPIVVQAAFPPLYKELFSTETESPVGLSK
Experimental: This approach is applicable to a wide variety of systems, and rigorous in theoretical interpretation through quantitation of equilibrium binding constants (KD).
The shift in the melting point described as a ΔTm is proportional to the concentration and affinity of the ligand.
Protein and compound solutions are dispensed into black 384-well polypropylene PCR microplates (Abgene) and overlayed with silicone oil (1 μL, Fluka, type DC 200) to prevent evaporation.
Bar-coded assay plates are robotically loaded onto a thermostatically controlled PCR-type thermal block and then heated at a typical ramp-rate of 1° C./min for all experiments.
Fluorescence was measured by continuous illumination with UV light (Hamamatsu LC6) supplied via fiber optic and filtered through a band-pass filter (380-400 nm; >6 OD cutoff). Fluorescence emission of the entire 384-well plate was detected by measuring light intensity using a CCD camera (Sensys, Roper Scientific) filtered to detect 500±25 nm, resulting in simultaneous and independent readings of all 384 wells. Images were collected at each temperature, and the sum of the pixel intensity in a given area of the assay plate was recorded versus temperature. Reference wells contained RORγt without compounds, and the assay conditions were as follows: • 0.065 mg/mL RORγt • 60 μM 1,8-ANS • 100 mM Hepes, pH 7.0 • 10 mM NaCl • 2.5 mM GSH • 0.002% Tween-20
Project compounds were arranged in a pre-dosed mother plate (Greiner Bio-one) wherein compounds are serially diluted in 100% DMSO by 1:2 from a high concentration of 10 mM over 12 columns within a series (column 12 is a reference well containing DMSO, no compound). The compounds were robotically dispensed directly into assay plates (1×=46 nL) using a Hummingbird capillary liquid handling instrument (Digilab). Following compound dispense, protein and dye in buffer was added to achieve the final assay volume of 3 μL, followed by 1 μL of silicone oil.

C[C@H](NS(=O)(=O)c1ccc(-c2sc(-c3nnc(C(C)(C)O)o3)nc2C(=O)N2CCC(F)(F)C2)c(Cl)c1Cl)C(F)(F)F [Example 6/2, (S)-2,3-Dichloro-4-(4-(3,3-difluoropyrrolidine-1-carbonyl)-2-(5-(2-hydroxypropan-2-yl)-1,3,4-oxadiazol-2-yl)thiazol-5-yl)-N-(1,1,1-trifluoropropan-2-yl)benzenesulfonamide]
IC50 [1]: 0.038 µM | inhibition at 6 µM [1]: 108% | Kd [2]: 0.0076 µM

CC[C@H](NS(=O)(=O)c1ccc(-c2sc(-c3nnc(C(C)(C)O)o3)nc2C(=O)N2CCC(F)(F)CC2)c(C(F)F)c1F)C(F)(F)F [Example 6/3, (S)-3-(Difluoromethyl)-4-(4-(4,4-difluoropiperidine-1-carbonyl)-2-(5-(2-hydroxypropan-2-yl)-1,3,4-oxadiazol-2-yl)thiazol-5-yl)-2-fluoro-N-(1,1,1-trifluorobutan-2-yl)benzenesulfonamide]
IC50 [1]: 0.027 µM | inhibition at 6 µM [1]: 110% | Kd [2]: 0.0017 µM

C[C@H](NS(=O)(=O)c1ccc(-c2sc(-c3nnc(C(C)(C)O)o3)nc2C(=O)N2CC(F)(F)C[C@@H]2C)c(C(F)F)c1F)C(F)(F)F [Example 6/4, 4-(4-((S)-4,4-Difluoro-2-methylpyrrolidine-1-carbonyl)-2-(5-(2-hydroxypropan-2-yl)-1,3,4-oxadiazol-2-yl)thiazol-5-yl)-3-(difluoromethyl)-2-fluoro-N—((S)-1,1,1-trifluoropropan-2-yl)benzenesulfonamide]
IC50 [1]: 0.082 µM | inhibition at 6 µM [1]: 108% | Kd [2]: 0.0068 µM

C[C@H](NS(=O)(=O)c1ccc(-c2sc(-c3nnc(C(C)(C)O)o3)nc2C(=O)N2CC(F)(F)C[C@@H]2C)c(Cl)c1Cl)C(F)(F)F [Example 6/5, 2,3-Dichloro-4-(4-((S)-4,4-difluoro-2-methylpyrrolidine-1-carbonyl)-2-(5-(2-hydroxypropan-2-yl)-1,3,4-oxadiazol-2-yl)thiazol-5-yl)-N—((S)-1,1,1-trifluoropropan-2-yl)benzenesulfonamide]
IC50 [1]: 0.023 µM | inhibition at 6 µM [1]: 103% | Kd [2]: 0.0006 µM

CCCN(C)C(=O)c1nc(-c2nnc(C(C)(C)O)o2)sc1-c1ccc(S(=O)(=O)N[C@@H](C)C(F)(F)F)c(Cl)c1Cl [Example 6/6, (S)-5-(2,3-Dichloro-4-(N-(1,1,1-trifluoropropan-2-yl)sulfamoyl)phenyl)-2-(5-(2-hydroxypropan-2-yl)-1,3,4-oxadiazol-2-yl)-N-methyl-N-propylthiazole-4-carboxamide]
IC50 [1]: 0.072 µM | inhibition at 6 µM [1]: 110% | Kd [2]: 0.016 µM

CCN(C(=O)c1nc(-c2nnc(C(C)(C)O)o2)sc1-c1ccc(S(=O)(=O)N[C@@H](C)C(F)(F)F)c(Cl)c1Cl)C(C)C [Example 6/7, (S)-5-(2,3-Dichloro-4-(N-(1,1,1-trifluoropropan-2-yl)sulfamoyl)phenyl)-N-ethyl-2-(5-(2-hydroxypropan-2-yl)-1,3,4-oxadiazol-2-yl)-N-isopropylthiazole-4-carboxamide]
IC50 [1]: 0.038 µM | inhibition at 6 µM [1]: 113% | Kd [2]: 0.0017 µM

CCCN(CC)C(=O)c1nc(-c2nnc(C(C)(C)O)o2)sc1-c1ccc(S(=O)(=O)N[C@@H](C)C(F)(F)F)c(Cl)c1Cl [Example 6/8, (S)-5-(2,3-Dichloro-4-(N-(1,1,1-trifluoropropan-2-yl)sulfamoyl)phenyl)-N-ethyl-2-(5-(2-hydroxypropan-2-yl)-1,3,4-oxadiazol-2-yl)-N-propylthiazole-4-carboxamide]
IC50 [1]: 0.03 µM | inhibition at 6 µM [1]: 108% | Kd [2]: 0.0045 µM

C[C@H](NC(=O)c1cc(-c2sc(-c3nnc(C(C)(C)O)o3)nc2C(=O)N2CCC(F)CC2)cc(C2(C)CC2)c1)C(F)(F)F [Example 6/10, (S)-3-(4-(4-Fluoropiperidine-1-carbonyl)-2-(5-(2-hydroxypropan-2-yl)-1,3,4-oxadiazol-2-yl)thiazol-5-yl)-5-(1-methylcyclopropyl)-N-(1,1,1-trifluoropropan-2-yl)benzamide]
IC50 [1]: 0.21 µM | inhibition at 6 µM [1]: 101% | Kd [2]: 0.045 µM

CC[C@H](NS(=O)(=O)c1ccc(-c2sc(-c3nnc(C(C)(C)O)o3)nc2C(=O)N2CCC(F)CC2)c(Cl)c1)C(F)(F)F [Example 6/11, (S)-3-Chloro-4-(4-(4-fluoropiperidine-1-carbonyl)-2-(5-(2-hydroxypropan-2-yl)-1,3,4-oxadiazol-2-yl)thiazol-5-yl)-N-(1,1,1-trifluorobutan-2-yl)benzenesulfonamide]
IC50 [1]: 0.069 µM | inhibition at 6 µM [1]: 104% | Kd [2]: 0.0093 µM

CC[C@H](NS(=O)(=O)c1ccc(-c2sc(-c3nnc(C(C)(C)O)o3)nc2C(=O)N2CCC(F)(F)CC2)c(Cl)c1)C(F)(F)F [Example 6/12, (S)-3-Chloro-4-(4-(4,4-difluoropiperidine-1-carbonyl)-2-(5-(2-hydroxypropan-2-yl)-1,3,4-oxadiazol-2-yl)thiazol-5-yl)-N-(1,1,1-trifluorobutan-2-yl)benzenesulfonamide]
IC50 [1]: 0.055 µM | inhibition at 6 µM [1]: 103% | Kd [2]: 0.01 µM

CC[C@H](NS(=O)(=O)c1ccc(-c2sc(-c3nnc(C(C)(C)O)o3)nc2C(=O)N2CC(F)(F)C2)c(Cl)c1)C(F)(F)F [Example 6/13, (S)-3-Chloro-4-(4-(3,3-difluoroazetidine-1-carbonyl)-2-(5-(2-hydroxypropan-2-yl)-1,3,4-oxadiazol-2-yl)thiazol-5-yl)-N-(1,1,1-trifluorobutan-2-yl)benzenesulfonamide]
IC50 [1]: 1.1 µM | inhibition at 6 µM [1]: 90% | Kd [2]: 0.59 µM

C[C@H](NS(=O)(=O)c1ccc(-c2sc(-c3nnc(C(C)(C)O)o3)nc2C(=O)N2CCC(F)(F)CC2)c(C(F)F)c1Cl)C(F)(F)F [Example 6/14, (S)-2-Chloro-3-(difluoromethyl)-4-(4-(4,4-difluoropiperidine-1-carbonyl)-2-(5-(2-hydroxypropan-2-yl)-1,3,4-oxadiazol-2-yl)thiazol-5-yl)-N-(1,1,1-trifluoropropan-2-yl)benzenesulfonamide]
IC50 [1]: 0.073 µM | inhibition at 6 µM [1]: 105% | Kd [2]: 0.0033 µM

CC[C@H](NS(=O)(=O)c1ccc(-c2sc(-c3nnc(C(C)(C)O)o3)nc2C(=O)N2CCC(F)(F)CC2)c(Cl)c1F)C(F)(F)F [Example 6/15, (S)-3-Chloro-4-(4-(4,4-difluoropiperidine-1-carbonyl)-2-(5-(2-hydroxypropan-2-yl)-1,3,4-oxadiazol-2-yl)thiazol-5-yl)-2-fluoro-N-(1,1,1-trifluorobutan-2-yl)benzenesulfonamide]
IC50 [1]: 0.033 µM | inhibition at 6 µM [1]: 107% | Kd [2]: 0.00089 µM

CC[C@H](NS(=O)(=O)c1ccc(-c2sc(-c3nnc(C(C)(C)O)o3)nc2C(=O)N2CCC(F)(F)CC2)c(F)c1C(F)F)C(F)(F)F [Example 6/16, (S)-2-(Difluoromethyl)-4-(4-(4,4-difluoropiperidine-1-carbonyl)-2-(5-(2-hydroxypropan-2-yl)-1,3,4-oxadiazol-2-yl)thiazol-5-yl)-3-fluoro-N-(1,1,1-trifluorobutan-2-yl)benzenesulfonamide]
IC50 [1]: 0.038 µM | inhibition at 6 µM [1]: 104% | Kd [2]: 0.00047 µM

Reference: patent US9845319B2, “Amide substituted thiazoles as modulators of RORyt” (Janssen Pharmaceutica NV, priority 2014, dated 2017)
